“And” between values parts separate entries of the source, which are not always exact repeats. Identical values can stand only once. Inconclusive results and toxic doses are left out. Peptide text beside a SMILES is read from it. * marks the point of attachment. Cbz = O=C(OCc1ccccc1)*
Test system: P388 leukemia ip, CD2F1 mice, survival T/C
Assay: NCI In Vivo Anticancer Drug Screen. Data for tumor model P388 Leukemia (intraperitoneal) in CD2F1 (CDF1) mice
Details: endpoint: median survival time, higher = longer survival
In short: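 Mice carrying the transplanted tumor received test compound or vehicle. Survival was recorded in each group, and the value is the treated-group measurement divided by that of the vehicle-treated control group.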

[1] = dose: 12.5 mg/kg/injection, schedule: Q01DX005 (ip), vehicle: saline with Tween-80
[2] = dose: 25.0 mg/kg/injection, schedule: Q01DX005 (ip), vehicle: saline with Tween-80
[3] = dose: 50.0 mg/kg/injection, schedule: Q01DX005 (ip), vehicle: saline with Tween-80
[4] = dose: 100.0 mg/kg/injection, schedule: Q04DX003 (ip), vehicle: saline with Tween-80
[5] = dose: 200.0 mg/kg/injection, schedule: Q04DX003 (ip), vehicle: saline with Tween-80
[6] = dose: 100.0 mg/kg/injection, schedule: Q01DX009 (ip), vehicle: Klucel (hydroxypropylcellulose) (HPC)
[7] = dose: 200.0 mg/kg/injection, schedule: Q01DX009 (ip), vehicle: Klucel (hydroxypropylcellulose) (HPC)
[8] = dose: 50.0 mg/kg/injection, schedule: Q01DX009 (ip), vehicle: saline with Tween-80
[9] = dose: 100.0 mg/kg/injection, schedule: Q01DX009 (ip), vehicle: saline with Tween-80
[10] = dose: 200.0 mg/kg/injection, schedule: Q01DX009 (ip), vehicle: saline with Tween-80
[11] = dose: 60.0 mg/kg/injection, schedule: Q01DX005 (ip), vehicle: saline with Tween-80
[12] = dose: 120.0 mg/kg/injection, schedule: Q01DX005 (ip), vehicle: saline with Tween-80
[13] = dose: 240.0 mg/kg/injection, schedule: Q01DX005 (ip), vehicle: saline with Tween-80
[14] = dose: 200.0 mg/kg/injection, schedule: Q01DX009 (ip), vehicle: saline

C=C1C(=O)OC2CC3(C)OC3CC/C(C)=C/C(OC(C)=O)C12 (stereo not drawn)
T/C [1]: 111 % of control
T/C [2]: 111 % of control
T/C [3]: 111 % of control and 112 % of control

CNc1nc(N)nc(Nc2ccc(I)cc2)c1N=O
T/C [4]: 109 % of control
T/C [5]: 109 % of control
T/C (dose: 400.0 mg/kg/injection, schedule: Q04DX003 (ip), vehicle: saline with Tween-80): 109 % of control

CCOC(=O)C1=C(c2ccccc2)N(C)c2ccccc2S1
T/C (dose: 60.0 mg/kg/injection, schedule: Q01DX005 (ip), vehicle: saline + Tween-80 + alcohol): 100 % of control
T/C (dose: 120.0 mg/kg/injection, schedule: Q01DX005 (ip), vehicle: saline + Tween-80 + alcohol): 103 % of control
T/C (dose: 240.0 mg/kg/injection, schedule: Q01DX005 (ip), vehicle: saline + Tween-80 + alcohol): 100 % of control

CC1CC2(c3ccccc3)C(=O)NC(=O)N=C2O1 (stereo not drawn)
T/C (dose: 100.0 mg/kg/injection, schedule: Q04DX002 (ip), vehicle: Klucel (hydroxypropylcellulose) (HPC)): 105 % of control
T/C (dose: 200.0 mg/kg/injection, schedule: Q04DX002 (ip), vehicle: Klucel (hydroxypropylcellulose) (HPC)): 109 % of control
T/C (dose: 400.0 mg/kg/injection, schedule: Q04DX002 (ip), vehicle: Klucel (hydroxypropylcellulose) (HPC)): 105 % of control

N=C(N)c1nn(C2OC(CO)C(O)C2O)c2nc[nH]c(=O)c12 (stereo not drawn)
T/C [1]: 121 % of control
T/C [2]: 124 % of control

CCCCCCCCCCCCOC(=O)c1ccc(Br)cc1
T/C [6]: 104 % of control
T/C [7]: 102 % of control

CN(C(=O)C1CC1)c1ccccc1
T/C [8]: 105 % of control
T/C [9]: 107 % of control

CCc1ccnc(N=C2N=C(Nc3cc(CC)ccn3)c3ccccc32)c1
T/C [8]: 92 % of control
T/C [9]: 97 % of control
T/C [10]: 97 % of control

COc1ccnc(-c2cc(OC)cc(/C(N)=N/O)n2)c1
T/C [11]: 100 % of control
T/C [12]: 105 % of control
T/C [13]: 100 % of control

COc1cc2c(cc1OC)C(=O)CCC2
T/C (dose: 25.0 mg/kg/injection, schedule: Q01DX009 (ip), vehicle: Klucel (hydroxypropylcellulose) (HPC)): 105 % of control
T/C (dose: 50.0 mg/kg/injection, schedule: Q01DX009 (ip), vehicle: Klucel (hydroxypropylcellulose) (HPC)): 100 % of control
T/C [6]: 106 % of control
T/C [7]: 99 % of control

NC1C([O-])OC(CO)C(O)C1O.O=C1OC(C(O)CO)C([O-])=C1[OH2+].[Cu+2] (stereo not drawn)
T/C (dose: 6.25 mg/kg/injection, schedule: Q01DX005 (ip), vehicle: saline): 93 % of control
T/C (dose: 12.5 mg/kg/injection, schedule: Q01DX005 (ip), vehicle: saline): 99 % of control

CCN1C(=O)c2cccc([N+](=O)[O-])c2C1=O
T/C [6]: 101 % of control
T/C [7]: 104 % of control

CC(=O)NCCCC(=O)O
T/C [14]: 98 % of control

CNC1C(=O)C(C)C(O)(C(CC(C)C(O)/C=C/C=C/CNC(=O)C(C)(C)C(O)\C(C)=C/C=C\C=C\Cc2cnc(C)o2)OC)C12C(=O)OC2COC (stereo not drawn) (tested in a mixture with another compound)
T/C (dose: 1.0 mg/kg/injection, schedule: Q01DX005 (ip), vehicle: DMSO): 104 % of control
T/C (dose: 2.0 mg/kg/injection, schedule: Q01DX005 (ip), vehicle: DMSO): 93 % of control

CC1=C(CCC(=O)O)c2cc3nc(cc4[nH]c(cc5[nH]c(cc1n2)c(C)c5C1CC1C(=O)O)c(C)c4C1CC1C(=O)O)C(C)=C3CCC(=O)O (stereo not drawn)
T/C (dose: 50.0 mg/kg/injection, schedule: Q01DX005 (ip), vehicle: Klucel (hydroxypropylcellulose) (HPC)): 106 % of control
T/C (dose: 100.0 mg/kg/injection, schedule: Q01DX005 (ip), vehicle: Klucel (hydroxypropylcellulose) (HPC)): 101 % of control
T/C (dose: 200.0 mg/kg/injection, schedule: Q01DX005 (ip), vehicle: Klucel (hydroxypropylcellulose) (HPC)): 95 % of control

CCOC(=O)C1CCc2ccc(OC)c(OC)c2C1 (stereo not drawn)
T/C (dose: 12.5 mg/kg/injection, schedule: Q01DX009 (ip), vehicle: other): 100 % of control
T/C (dose: 25.0 mg/kg/injection, schedule: Q01DX009 (ip), vehicle: other): 97 % of control
T/C (dose: 50.0 mg/kg/injection, schedule: Q01DX009 (ip), vehicle: other): 105 % of control
T/C (dose: 100.0 mg/kg/injection, schedule: Q01DX009 (ip), vehicle: other): 100 % of control
T/C (dose: 200.0 mg/kg/injection, schedule: Q01DX009 (ip), vehicle: other): 110 % of control

COC(=O)NC[Si](C)(C)C
T/C (dose: 15.0 mg/kg/injection, schedule: Q01DX005 (ip), vehicle: saline with Tween-80): 105 % of control
T/C (dose: 30.0 mg/kg/injection, schedule: Q01DX005 (ip), vehicle: saline with Tween-80): 106 % of control
T/C [11]: 103 % of control

NC(=S)c1cc(Cl)cc(Cl)c1N
T/C (dose: 3.75 mg/kg/injection, schedule: Q01DX005 (ip), vehicle: Klucel (hydroxypropylcellulose) (HPC)): 100 % of control
T/C (dose: 7.5 mg/kg/injection, schedule: Q01DX005 (ip), vehicle: Klucel (hydroxypropylcellulose) (HPC)): 98 % of control
T/C (dose: 15.0 mg/kg/injection, schedule: Q01DX005 (ip), vehicle: Klucel (hydroxypropylcellulose) (HPC)): 99 % of control and 96 % of control
T/C (dose: 30.0 mg/kg/injection, schedule: Q01DX005 (ip), vehicle: Klucel (hydroxypropylcellulose) (HPC)): 94 % of control
T/C (dose: 60.0 mg/kg/injection, schedule: Q01DX005 (ip), vehicle: Klucel (hydroxypropylcellulose) (HPC)): 92 % of control

CCOC(=O)C1(c2cc(NS(=O)(=O)c3ccccc3)ccc2O)CCCCC1=O (stereo not drawn)
T/C (dose: 12.5 mg/kg/injection, schedule: Q01DX001 (ip), vehicle: saline with Tween-80): 104 % of control
T/C (dose: 25.0 mg/kg/injection, schedule: Q01DX001 (ip), vehicle: saline with Tween-80): 104 % of control
T/C (dose: 50.0 mg/kg/injection, schedule: Q01DX001 (ip), vehicle: saline with Tween-80): 100 % of control

Cc1[nH]nc(C(N)=O)c1N=NN(C)C
T/C (dose: 12.5 mg/kg/injection, schedule: Q01DX009 (ip), vehicle: saline with Tween-80): 113 % of control
T/C [8]: 204 % of control and 209 % of control
T/C (dose: 50.0 mg/kg/injection, schedule: Q04DX003 (ip), vehicle: saline with Tween-80): 122 % of control
T/C [4]: 150 % of control
T/C (dose: 132.0 mg/kg/injection, schedule: Q04DX003 (ip), vehicle: saline with Tween-80): 159 % of control
T/C [5]: 154 % of control

NCC(OCCCC(=O)O)C(Cl)(Cl)Cl (stereo not drawn)
T/C (dose: 50.0 mg/kg/injection, schedule: Q01DX009 (ip), vehicle: saline): 93 % of control
T/C (dose: 100.0 mg/kg/injection, schedule: Q01DX009 (ip), vehicle: saline): 101 % of control
T/C [14]: 100 % of control

O=C(CCl)Nc1c(Br)cc(F)cc1Br
T/C [8]: 88 % of control
T/C [9]: 99 % of control
T/C [10]: 104 % of control

COc1ccc(N2C(=O)C3CSCN3C2=O)cc1 (stereo not drawn)
T/C [11]: 100 % of control
T/C [12]: 94 % of control
T/C [13]: 92 % of control

COc1ccc(-c2cc(C(=O)O)c3cc4ccccc4cc3n2)cc1Br
T/C [8]: 94 % of control
T/C [9]: 93 % of control and 97 % of control
T/C [10]: 105 % of control and 87 % of control
T/C (dose: 400.0 mg/kg/injection, schedule: Q01DX009 (ip), vehicle: saline with Tween-80): 121 % of control and 89 % of control
T/C (dose: 600.0 mg/kg/injection, schedule: Q01DX009 (ip), vehicle: saline with Tween-80): 101 % of control

CCOC(=O)C1=C(C(C)=O)C(c2ccc(OC)c(OC)c2)C(C(C)=O)=C(C(=O)OCC)N1
T/C (dose: 60.0 mg/kg/injection, schedule: Q01DX005 (ip), vehicle: saline): 102 % of control
T/C (dose: 120.0 mg/kg/injection, schedule: Q01DX005 (ip), vehicle: saline): 100 % of control

FC(F)(F)C(Cl)(c1ccc(Cl)cc1)c1ccc(Cl)cc1
T/C (dose: 50.0 mg/kg/injection, schedule: Q01DX005 (sc), vehicle: olive oil, sesame oil, peanut oil): 96 % of control
T/C (dose: 100.0 mg/kg/injection, schedule: Q01DX005 (sc), vehicle: olive oil, sesame oil, peanut oil): 96 % of control
T/C (dose: 200.0 mg/kg/injection, schedule: Q01DX005 (sc), vehicle: olive oil, sesame oil, peanut oil): 95 % of control
T/C (dose: 400.0 mg/kg/injection, schedule: Q01DX005 (sc), vehicle: olive oil, sesame oil, peanut oil): 100 % of control

CC(C)CC(NC(=O)C(Cc1ccccc1)NC(=O)OCc1ccccc1)C(=O)NC(C)C(=O)O (stereo not drawn) (Cbz-Phe-Leu-Ala-OH; configuration not given here)
T/C [3]: 95 % of control
T/C (dose: 100.0 mg/kg/injection, schedule: Q01DX005 (ip), vehicle: saline with Tween-80): 97 % of control
T/C (dose: 200.0 mg/kg/injection, schedule: Q01DX005 (ip), vehicle: saline with Tween-80): 104 % of control

From PubChem BioAssay AID330 (DTP/NCI, 2004)
